From ChEMBL document CHEMBL1201862, “PubChem BioAssay data set” (2004)
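A five-concentration, 48-hour dose response in 96-well plates underlies each endpoint, interpolated linearly between surrounding concentrations. At the GI50, growth is halved.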 Activity calls are given as the source filed them. Rule as the data show it: active = GI50 up to about 1.1 µM and inactive = higher.

Key:
Test in all cases: NCI anticancer screen, dose series, 48 h
LXFL 529 = system: LXFL 529
M19-MEL = system: M19-MEL
DMS-114 = system: DMS-114
SW-620 = system: SW-620
SNB-19 = system: SNB-19
SF-295 = system: SF-295
HOP-62 = system: HOP-62
SNB-75 = system: SNB-75
NCI-H522 = system: NCI-H522
CAKI-1 = system: CAKI-1
HL-60 = system: HL-60
Malme-3M = system: Malme-3M
HT-29 = system: HT-29
RPMI-8226 = system: RPMI-8226
SK-MEL-5 = system: SK-MEL-5
ACHN = system: ACHN
SN12C = system: SN12C
SK-OV-3 = system: SK-OV-3
CCRF-CEM = system: CCRF-CEM
SF-539 = system: SF-539
HCT-15 = system: HCT-15
SF-268 = system: SF-268
OVCAR-5 = system: OVCAR-5
OVCAR-4 = system: OVCAR-4
NCI-H226 = system: NCI-H226
M14 = system: M14
KM-20L2 = system: KM-20L2
NCI-H23 = system: NCI-H23
OVCAR-3 = system: OVCAR-3
UACC-62 = system: UACC-62
SK-MEL-28 = system: SK-MEL-28
COLO 205 = system: COLO 205
KM12 = system: KM12
HOP-92 = system: HOP-92
UACC-257 = system: UACC-257
HCT-116 = system: HCT-116
A549 = system: A549
LOX IMVI = system: LOX IMVI
OVCAR-8 = system: OVCAR-8
U-251 = system: U-251
SNB-78 = system: SNB-78
K562 = system: K562
RXF 393 = system: RXF 393
SR = system: SR
DLD-1 = system: DLD-1
IGROV-1 = system: IGROV-1
NCI-H460 = system: NCI-H460
MOLT-4 = system: MOLT-4
786-0 = system: 786-0
TK-10 = system: TK-10
UO-31 = system: UO-31
HCC 2998 = system: HCC 2998
A498 = system: A498
SK-MEL-2 = system: SK-MEL-2
EKVX = system: EKVX
XF498 = system: XF498
DU-145 = system: DU-145
MDA-N = system: MDA-N
MDA-MB-435 = system: MDA-MB-435
MCF7 = system: MCF7
PC-3 = system: PC-3
BT-549 = system: BT-549
Hs-578T = system: Hs-578T
T47D = system: T47D
NCI/ADR-RES = system: NCI/ADR-RES
MDA-MB-231 = system: MDA-MB-231

Compound: CCC(=O)N(O)C(C)(C)C
- GI50 (LXFL 529): > 100 µM (inactive)
- GI50 (M19-MEL): > 100 µM (inactive)
- GI50 (DMS-114): > 100 µM (inactive)
- GI50 (SW-620): > 100 µM (inactive)
- GI50 (SNB-19): > 100 µM (inactive)
- GI50 (SF-295): > 100 µM (inactive)
- GI50 (HOP-62): > 100 µM (inactive)
- GI50 (SNB-75): 92.3 µM (inactive)
- GI50 (NCI-H522): > 100 µM (inactive)
- GI50 (CAKI-1): > 100 µM (inactive)
- GI50 (HL-60): > 100 µM (inactive)
- GI50 (Malme-3M): > 100 µM (inactive)
- GI50 (HT-29): > 100 µM (inactive)
- GI50 (RPMI-8226): > 100 µM (inactive)
- GI50 (SK-MEL-5): > 100 µM (inactive)
- GI50 (ACHN): > 100 µM (inactive)
- GI50 (SN12C): > 100 µM (inactive)
- GI50 (SK-OV-3): > 100 µM (inactive)
- GI50 (CCRF-CEM): > 100 µM (inactive)
- GI50 (SF-539): > 100 µM (inactive)
- GI50 (HCT-15): > 100 µM
- GI50 (SF-268): > 100 µM (inactive)
- GI50 (OVCAR-5): > 100 µM (inactive)
- GI50 (OVCAR-4): > 100 µM (inactive)
- GI50 (NCI-H226): > 100 µM (inactive)
- GI50 (M14): > 100 µM (inactive)
- GI50 (KM-20L2): > 100 µM (inactive)
- GI50 (NCI-H23): > 100 µM (inactive)
- GI50 (OVCAR-3): > 100 µM (inactive)
- GI50 (UACC-62): > 100 µM (inactive)
- GI50 (SK-MEL-28): > 100 µM (inactive)
- GI50 (COLO 205): > 100 µM (inactive)
- GI50 (KM12): > 100 µM (inactive)
- GI50 (HOP-92): > 100 µM (inactive)
- GI50 (UACC-257): > 100 µM (inactive)
- GI50 (HCT-116): > 100 µM (inactive)
- GI50 (A549): > 100 µM (inactive)
- GI50 (LOX IMVI): > 100 µM (inactive)
- GI50 (OVCAR-8): > 100 µM (inactive)
- GI50 (U-251): > 100 µM (inactive)
- GI50 (SNB-78): > 100 µM (inactive)
- GI50 (K562): > 100 µM (inactive)
- GI50 (RXF 393): > 100 µM (inactive)
- GI50 (SR): > 100 µM (inactive)
- GI50 (DLD-1): > 100 µM (inactive)
- GI50 (IGROV-1): > 100 µM (inactive)
- GI50 (NCI-H460): > 100 µM (inactive)
- GI50 (MOLT-4): > 100 µM (inactive)
- GI50 (786-0): > 100 µM (inactive)
- GI50 (TK-10): > 100 µM (inactive)
- GI50 (UO-31): > 100 µM (inactive)
- GI50 (HCC 2998): > 100 µM (inactive)

Compound: CC(C)(C=O)CC(C#N)/C(=N\NC(N)=O)C(=O)Nc1ccccc1C(N)=O (stereo not drawn)
- GI50 (LXFL 529): > 100 µM (inactive)
- GI50 (M19-MEL): > 100 µM (inactive)
- GI50 (SW-620): > 100 µM (inactive)
- GI50 (SNB-19): > 100 µM (inactive)
- GI50 (SF-295): > 100 µM (inactive)
- GI50 (A498): > 100 µM (inactive)
- GI50 (SK-MEL-2): > 100 µM (inactive)
- GI50 (HOP-62): > 100 µM (inactive)
- GI50 (NCI-H522): > 100 µM (inactive)
- GI50 (CAKI-1): > 100 µM (inactive)
- GI50 (HL-60): > 100 µM (inactive)
- GI50 (Malme-3M): > 100 µM (inactive)
- GI50 (HT-29): > 100 µM (inactive)
- GI50 (RPMI-8226): > 100 µM (inactive)
- GI50 (SK-MEL-5): > 100 µM (inactive)
- GI50 (ACHN): > 100 µM (inactive)
- GI50 (SN12C): > 100 µM (inactive)
- GI50 (SK-OV-3): > 100 µM (inactive)
- GI50 (CCRF-CEM): > 100 µM (inactive)
- GI50 (SF-539): > 100 µM (inactive)
- GI50 (HCT-15): > 100 µM
- GI50 (SF-268): > 100 µM (inactive)
- GI50 (OVCAR-5): > 100 µM (inactive)
- GI50 (OVCAR-4): > 100 µM (inactive)
- GI50 (NCI-H226): > 100 µM (inactive)
- GI50 (M14): > 100 µM (inactive)
- GI50 (KM-20L2): > 100 µM (inactive)
- GI50 (NCI-H23): > 100 µM (inactive)
- GI50 (OVCAR-3): > 100 µM (inactive)
- GI50 (UACC-62): > 100 µM (inactive)
- GI50 (SK-MEL-28): > 100 µM (inactive)
- GI50 (KM12): > 100 µM (inactive)
- GI50 (EKVX): > 100 µM (inactive)
- GI50 (HOP-92): 38.6 µM (inactive)
- GI50 (UACC-257): > 100 µM (inactive)
- GI50 (HCT-116): > 100 µM (inactive)
- GI50 (A549): > 100 µM (inactive)
- GI50 (LOX IMVI): > 100 µM (inactive)
- GI50 (OVCAR-8): > 100 µM (inactive)
- GI50 (U-251): > 100 µM (inactive)
- GI50 (SNB-78): > 100 µM (inactive)
- GI50 (K562): > 100 µM (inactive)
- GI50 (SR): > 100 µM (inactive)
- GI50 (XF498): > 100 µM (inactive)
- GI50 (IGROV-1): > 100 µM (inactive)
- GI50 (NCI-H460): > 100 µM (inactive)
- GI50 (MOLT-4): > 100 µM (inactive)
- GI50 (786-0): > 100 µM (inactive)
- GI50 (TK-10): > 100 µM (inactive)
- GI50 (UO-31): > 100 µM (inactive)
- GI50 (HCC 2998): > 100 µM (inactive)

Compound: COc1ccc(/C=C/C(=O)/C=C/c2ccc(OC)cc2)cc1
- GI50 (DU-145): > 100 µM (inactive)
- GI50 (MDA-N): 19 µM (inactive)
- GI50 (SW-620): 23.7 µM (inactive)
- GI50 (SNB-19): > 100 µM (inactive)
- GI50 (SF-295): > 100 µM (inactive)
- GI50 (A498): > 100 µM (inactive)
- GI50 (MDA-MB-435): 14.6 µM (inactive)
- GI50 (SK-MEL-2): 33.3 µM (inactive)
- GI50 (HOP-62): > 100 µM (inactive)
- GI50 (SNB-75): 38.9 µM (inactive)
- GI50 (NCI-H522): 42.8 µM (inactive)
- GI50 (MCF7): 47.8 µM (inactive)
- GI50 (CAKI-1): > 100 µM (inactive)
- GI50 (PC-3): 69.3 µM (inactive)
- GI50 (HL-60): 20 µM (inactive)
- GI50 (Malme-3M): > 100 µM (inactive)
- GI50 (BT-549): 29.4 µM (inactive)
- GI50 (HT-29): 29.3 µM (inactive)
- GI50 (RPMI-8226): 5.01 µM (inactive)
- GI50 (SK-MEL-5): 31.3 µM (inactive)
- GI50 (Hs-578T): 47.2 µM (inactive)
- GI50 (T47D): 55.3 µM (inactive)
- GI50 (ACHN): 89.1 µM (inactive)
- GI50 (SN12C): > 100 µM (inactive)
- GI50 (SK-OV-3): > 100 µM (inactive)
- GI50 (CCRF-CEM): 31.8 µM (inactive)
- GI50 (SF-539): 26.4 µM (inactive)
- GI50 (HCT-15): 47.8 µM
- GI50 (SF-268): 54.6 µM (inactive)
- GI50 (OVCAR-5): > 100 µM (inactive)
- GI50 (OVCAR-4): 43.5 µM (inactive)
- GI50 (NCI-H226): 22.4 µM (inactive)
- GI50 (M14): 21.1 µM (inactive)
- GI50 (NCI-H23): > 100 µM (inactive)
- GI50 (OVCAR-3): 32.1 µM (inactive)
- GI50 (UACC-62): > 100 µM (inactive)
- GI50 (SK-MEL-28): > 100 µM (inactive)
- GI50 (COLO 205): 34.5 µM (inactive)
- GI50 (KM12): 24 µM (inactive)
- GI50 (EKVX): 41.7 µM (inactive)
- GI50 (HOP-92): 32.5 µM (inactive)
- GI50 (UACC-257): 20 µM (inactive)
- GI50 (NCI/ADR-RES): 97.1 µM (inactive)
- GI50 (HCT-116): 11.2 µM (inactive)
- GI50 (A549): 46 µM (inactive)
- GI50 (LOX IMVI): 40.4 µM (inactive)
- GI50 (OVCAR-8): 17.6 µM (inactive)
- GI50 (U-251): 23.7 µM (inactive)
- GI50 (K562): 31.6 µM (inactive)
- GI50 (RXF 393): 18.3 µM (inactive)
- GI50 (SR): 22.5 µM (inactive)
- GI50 (IGROV-1): 45.6 µM (inactive)
- GI50 (NCI-H460): > 100 µM (inactive)
- GI50 (MOLT-4): 51.1 µM (inactive)
- GI50 (786-0): 46.5 µM (inactive)
- GI50 (TK-10): 73.3 µM (inactive)
- GI50 (UO-31): > 100 µM (inactive)
- GI50 (MDA-MB-231): 89.1 µM (inactive)
- GI50 (HCC 2998): 0.222 µM (active)

Compound: CNc1nc(N(C)C)nc(N(C)C)n1 [PENTAMETHYL MELAMINE]
- GI50 (LXFL 529): > 100 µM (inactive)
